Test results published in patent US12280037B2, “Method and pharmaceutical composition for treating or preventing trichomoniasis and uses thereof” (EVOFEM BIOSCIENCES, INC., priority 2020, dated 2025).
In brackets after ≈: the same amount, converted by molar mass. Several values for one entry are separate records, joined by “and”; a condition that tells them apart may be missing. Equal entries are not always repeated.

How the values were obtained:
[1] = tested on: clinical isolates of T. vaginalis; assay: Susceptibility testing, minimal lethal concentration (MLC), aerobic; assay type: cell-based, Trichomonas vaginalis; conditions: for MLC, mean (±SD) among all isolates / MLC, median: aerobic, 46-50 h
Description: Susceptibility testing was conducted with one hundred (100) clinical isolates of T. vaginalis.
Archived, de-identified, clinical isolates of T. vaginalis that were banked in liquid nitrogen were used for this study. The samples had been collected between July 2015 and June 2017, in accordance with institutional review board guidelines, and all patients had consented to the storage and use of their samples for subsequent testing. […] In brief, trichomonads were grown in Diamond's medium 1025 (containing trypticase soy broth, yeast extract, maltose, and calf serum) adjusted to pH 5.9 and supplemented with streptomycin at 1 g/liter and penicillin G at 100 U/ml. A hemocytometer was used to count the trichomonad population and to adjust it to a concentration of 66,666 cells/ml. Isolates were tested in microtiter plates under aerobic conditions. […] Plates were then incubated at 37° C. for 46 hours to 50 hours and read with a Zeiss Axiovert inverted microscope. The concentration of drug in the microplate wells in which no motile trichomonads were observed was reported as the MLC. […] Low-level resistance was defined as an aerobic MLC of 50 μg/ml to 100 μg/ml, moderate-level resistance as an aerobic MLC of 200 μg/ml, and high-level resistance as an aerobic MLC of >400 μg/ml. The MLCs for metronidazole and secnidazole were analyzed using the Wilcoxon signed-rank test to evaluate the differences between treatments.
Each well of a 96-well plate was filled with 150 μL of T. vaginalis suspension in Diamond's growth media (10^4 trichomonads). […] Cultures were visually assessed for survival, defined by observation of motility, through a 100× inverted microscope.

[2] = Phase 3 study: treatment-emergent adverse events (safety population); assay type: in vivo, human; conditions: 2 grams, safety population (N = 74), TEAEs in primary phase
Description: Safety analyses, including the evaluation of adverse events, physical examinations, pelvic examinations, collection of vital signs (blood pressure, temperature, and pulse), and clinical laboratory assessments (serum chemistry, hematology, and urinalysis) was conducted at all study visits. Adverse event information was also collected on the phone call between study V2 and V3.

[3] = Phase I study of SYM-1219 4 grams or 6 grams: secnidazole plasma concentrations; assay type: in vivo, human
Description: Additionally, a Phase I, randomized, placebo-controlled, single-blind, two-group study, which assessed the safety, tolerability, and PK of single oral doses of SYM-1219 granules containing either 4 grams or 6 grams of secnidazole administered in approximately 8 ounces of applesauce to 16 healthy male and female subjects, was conducted to determine the supratherapeutic dose for a potential Thorough QT (“TQT”) study. Subjects were randomized 3:1, such that a total of 12 subjects received secnidazole and 4 subjects received placebo. 3 male and 3 female subjects were treated at each secnidazole dose level (i.e., 4 grams or 6 grams). Blood samples for PK assessments were collected at the following timepoints: 30 minutes prior to dosing and 3 hours, 6 hours, 8 hours and 24 hours post dose. Plasma concentrations were summarized by timepoint using descriptive statistics; noncompartmental PK parameters were not calculated.
Eligible subject were admitted to the clinical site on Day −1 and were discharged following a safety evaluation on Day 2; the in-house period was approximately 2 days. Randomization occurred after the assessments of Day −1 determined that subjects remained eligible for the study. All subject were asked to return on Day 7+/2 days for a final study visit. The maximum study duration was approximately 4 weeks to 5 weeks (including the study screening period).
Group A received a single oral dose of SYM-1219 microgranules, containing 4 grams of secnidazole (N=6) (2 packets of SYM-1219 microgranules, 2 grams of secnidazole/packet), or a placebo (N=2) (2 packets of placebo) in approximately 8 oz. of applesauce. […]
Blood samples for PK analysis were collected: 30 minutes prior to dosing and 3 hours, 6 hours, 8 hours and 24 hours postdose. […] Plasma secnidazole concentrations were determined by Celerion, Inc., using validated analytical procedures. […]

[4] = Thorough QT (TQT) study: secnidazole pharmacokinetics by gender; assay type: in vivo, human
Description: A TQT study was also conducted. […] A total of 50 subjects (29 males and 21 females) were included in the PK population. Noncompartmental PK parameters for these subjects are summarized by gender in Table 15 below.

[5] = men, published studies; cited from earlier work
[6] = Thorough QT (TQT) study: QTc, cardiac conduction and adverse events; conditions: Moxifloxacin 400 mg oral (control)
Description: A TQT study was also conducted. The TQT study was a double-blind, randomized, placebo-controlled, 4-period, single-dose, crossover design in 52 healthy male and female subjects.

[7] = 100 clinical T. vaginalis isolates
[8] = 100 clinical T. vaginalis isolates, listed as secnidazole

Cc1ncc([N+](=O)[O-])n1CC(C)O (stereo not drawn) [Secnidazole, 1-(2-hydroxypropyl)-2-methyl-5-nitromidazole]
In vitro efficacy in comparison with metronidazole [1, 7]: superior efficacy in vitro | Isolates demonstrating moderate- or high-level resistance [1, 7]: none of the isolates | Isolates with a lower MLC for secnidazole than for metronidazole [1, 7]: 96% | Prevalence of low-level resistance (aerobic MLC 50 μg/ml to 100 μg/ml) [1, 7]: Four | MLC, mean (±SD) among all isolates [1, 7]: Mean: 5.9 μg/mL | MLC, median [1, 7]: Median: 1.6 μg/mL | MLC, mean (±SD) among all isolates [1, 8]: 5.9 ± 13.2 µg/mL and 5.9 µg/mL | MLC, median [1, 8]: 1.6 µg/mL (≈ 8.64 µM) | Response of control isolates with established high-level resistance to metronidazole ([1]; control isolates): responded to significantly lower levels of secnidazole | MLC in the one isolate with a higher MLC for secnidazole than for metronidazole ([1]; single clinical isolate): 3.1 µg/mL | Abdominal pain: Events n [2]: 1 | Abdominal pain: Patients n (%) [2]: 1 (1.4%) | Any Adverse Event, Overall: Events n [2]: 13 | Any Adverse Event, Overall: Patients n (%) [2]: 11 (14.9%) | Back pain: Events n [2]: 0 | Back pain: Patients n (%) [2]: 0% | Diarrhea: Events n [2]: 1 | Diarrhea: Patients n (%) [2]: 1 (1.4%) | Dysmenorrhoea: Events n [2]: 0 | Dysmenorrhoea: Patients n (%) [2]: 0% | Gastrointestinal disorders, Overall: Events n [2]: 5 | Gastrointestinal disorders, Overall: Patients n (%) [2]: 4 (5.4%) | General disorders and administration site conditions, Overall: Events n [2]: 0 | General disorders and administration site conditions, Overall: Patients n (%) [2]: 0% | Headache: Events n [2]: 1 | Headache: Patients n (%) [2]: 1 (1.4%) | Infections and infestations, Overall: Events n [2]: 3 | Infections and infestations, Overall: Patients n (%) [2]: 3 (4.1%) | Menstruation irregular: Events n [2]: 0 | Menstruation irregular: Patients n (%) [2]: 0% | Musculoskeletal and connective tissue disorders, Overall: Events n [2]: 1 | Musculoskeletal and connective tissue disorders, Overall: Patients n (%) [2]: 1 (1.4%) | Myalgia: Events n [2]: 1 | Myalgia: Patients n (%) [2]: 1 (1.4%) | Nausea: Events n [2]: 2 | Nausea: Patients n (%) [2]: 2 (2.7%) | Nervous system disorders, Overall: Events n [2]: 1 | Nervous system disorders, Overall: Patients n (%) [2]: 1 (1.4%) | Productive cough: Events n [2]: 1 | Productive cough: Patients n (%) [2]: 1 (1.4%) | Pruritus: Events n [2]: 0 | Pruritus: Patients n (%) [2]: 0% | Reproductive system and breast disorders, Overall: Events n [2]: 1 | Reproductive system and breast disorders, Overall: Patients n (%) [2]: 1 (1.4%) | Respiratory, thoracic and mediastinal disorders, Overall: Events n [2]: 2 | Respiratory, thoracic and mediastinal disorders, Overall: Patients n (%) [2]: 2 (2.7%) | Skin and subcutaneous tissue disorders, Overall: Events n [2]: 0 | Skin and subcutaneous tissue disorders, Overall: Patients n (%) [2]: 0% | Thirst: Events n [2]: 0 | Thirst: Patients n (%) [2]: 0% | Trichomoniasis (adverse event): Events n [2]: 0 | Trichomoniasis (adverse event): Patients n (%) [2]: 0% | Upper-airway cough syndrome: Events n [2]: 1 | Upper-airway cough syndrome: Patients n (%) [2]: 1 (1.4%) | Vomiting: Events n [2]: 1 | Vomiting: Patients n (%) [2]: 1 (1.4%) | Vulvovaginal candidiasis: Events n [2]: 2 | Vulvovaginal candidiasis: Patients n (%) [2]: 2 (2.7%) | Vulvovaginal mycotic infection: Events n [2]: 1 | Vulvovaginal mycotic infection: Patients n (%) [2]: 1 (1.4%) | Vulvovaginal pruritus: Events n [2]: 1 | Vulvovaginal pruritus: Patients n (%) [2]: 1 (1.4%) | Plasma concentrations and exposures in males versus females ([3]; 4 and 6 grams): slightly lower | Variability in plasma concentrations ([3]; across the limited sampling times, 4 and 6 grams): 4% to 29% | Dose proportionality of plasma concentrations ([3]; from 4 grams to 6 grams of secnidazole): essentially dose-proportional | Plasma concentrations and exposures in males versus females ([4]; 2 and 6 grams): slightly lower | Secnidazole exposure over the 24-hour sampling period, fold lower in male vs female subjects ([4]; Phase I study concentration-by-time data or TQT study mean PK parameters): approximately 1.5 fold | Variability in plasma concentrations ([4]; across the sampling times, 2 and 6 grams): 21% to 57% | Dose proportionality of plasma concentrations ([4]; from 2 grams to 6 grams of secnidazole): essentially dose-proportional | Time postdose up to which concentrations greater than the median MLC are maintained ([4]; men): at least 96 hours | Mean dose-normalized (to 2 grams) concentrations at 96 hours [5]: approximately 2 μg/mL

COc1c(N2C[C@@H]3CCCN[C@@H]3C2)c(F)cc2c(=O)c(C(=O)O)cn(C3CC3)c12 [Moxifloxacin]
Overall incidence rate of TEAEs [6]: 4.3%
